Test results published in patent publication US20260265690A1, “Epithelial Stem Cells and Production and Uses thereof” (Stemson Therapeutics Corp., priority 2022, published 2026).

Experiments:
Type in all cases: cell-based, human
hiPSC-EPSCs = experiment: Colony formation assay (CFA) on 3T3 fibroblast feeders; conditions: small molecules added to expansion medium at passage 4; 2.5 μM CHIR99021, 1 μM DMH-1, 2.5 μM A-83-01; CFA at p7, 1K/well, 10 days
Experimental: FIGS. 2A-2D show characterization of hiPSC-EPSC in vitro. […] For CFA, different hiPSC-EPSC lines (EP61, EP112 and EP116) and control HF-KC were subcultured for 3 passages (p3) then plated on 3T3 fibroblast feeders at 1K/well and incubated for additional 10 days, then fixed and stained with Crystal violet. […] Hair follicle derived keratinocytes (HFKC) are used as reference cells. […] Ns: p>0.05; *: p<0.05; ** p<0.01; *** p<0.001; ****: p<0.0001. […] Note nuclear localization of 3-Cat, a hallmark of Wnt signaling activation in hiPSC-EPSC but not in HF-KC (arrows).
(§1) FIGS. 3A-3E show activation of Wnt signaling pathway via GSK3 inhibition enables long-term expansion of hiPSC-EPSC. […] The clonogenicity of hiPSC-EPSCs was diminishing as a result of serial passaging. […] For CFA, hiPSC-EPSCs were cultured for 7 weeks (p7) with or without small molecule inhibitors, then plated on 3T3 fibroblast feeders at 1K/well and incubated for additional 10 days, then fixed and stained with Crystal violet. The plates were scanned and analyzed using imaging software to determine the confluency. The confluency data from three experiments is summarized in the graph (right panel). […] The graph is showing the percentage of proliferating (Ki67+) hiPSC-EPSC over total nuclei (DAPI+). *: p<0.05. […] Data was analyzed using standard ddCt method and shown as mean±s.d. of the expression from three independent experiments. *: p<0.05; ****: p<0.01. […] Data are represented as a heatmap, where results from eight independent differentiation experiments were averaged and z-scores were calculated for each timepoint represented.
(§2) Despite EPSCs having substantial self-renewal capability in vivo, the prolonged expansion in vitro of EPSC isolated from various tissues has remained challenging. It is well documented that in conventional cultures, freshly isolated EPSCs rapidly lose their clonogenicity and stem cell marker expression signature. Inoue et al, Lab invest. 2009 August, 89(8):844-56; Ohyama et al., J Clin Invest. 2006 January, 116(1):249-60; Yang et al., Stem Cell Research & Therapy (2020) 11:303. […]

[1] = test system: HF organoids of hiPSC-EPSC with dermal papilla (DP) cells; experiment: 3D hair follicle organoid assay (roundness/elongation score); conditions: 2.5 μM added to EPSC and organoid culture
Experimental: FIGS. 4A-4D show in vitro functional analysis of hiPSC-EPSC in 3D tissue constructs. […] Bottom panel illustrates an organoid development process of using an example of an organoid created by combining fluorescently labeled (red) dermal papilla (DP) cells with HF-KCs. […] Measurement is obtained with CYTATION™ 5 software. Each color represents a different cell combination, and each dot represents a single organoid. The percentage of elongated organoids was increased when hiPSC-EPSC were treated with CHIR-99021. […] Neonatal foreskin-derived keratinocytes (HFK) were used as a control. […]
The stable hiPSC-EPSC with features of HF bulge EPSC described above were investigated as to whether they were receptive to specific mesenchymal stimuli and capable of creating complex multilayered tissues. […] To quantitively assess the organoids elongation and provide an indicator of hiPSC-EPSC functionality in vitro, an automated computational image-based analysis was employed that calculates the roundness of the generated 3D structures, assigning values between 1 and 0, where 1 represents a perfectly round object and 0 a long shaped one. By plotting time-lapse values of roundness score in a graph, the ability of iPSC-EPSC cells to generate elongated structure in combination with DP cells (FIG. 4C) was quantified. […]

passage 4 hiPSC-EPSCs = experiment: Bulk RNA-seq of HF bulge EPSC marker expression; conditions: CHIR-99021 vs DMSO
Experimental: FIGS. 3A-3E show activation of Wnt signaling pathway via GSK3 inhibition enables long-term expansion of hiPSC-EPSC. […] The clonogenicity of hiPSC-EPSCs was diminishing as a result of serial passaging. […] For CFA, hiPSC-EPSCs were cultured for 7 weeks (p7) with or without small molecule inhibitors, then plated on 3T3 fibroblast feeders at 1K/well and incubated for additional 10 days, then fixed and stained with Crystal violet. The plates were scanned and analyzed using imaging software to determine the confluency. The confluency data from three experiments is summarized in the graph (right panel). […] Data was analyzed using standard ddCt method and shown as mean±s.d. of the expression from three independent experiments. *: p<0.05; ****: p<0.01. […] Data are represented as a heatmap, where results from eight independent differentiation experiments were averaged and z-scores were calculated for each timepoint represented.
Bulk RNA-sequencing: RNA was extracted from each sample and quantified with Qubit. cDNA libraries were generated using the NEB library kit. All libraries were then quantified, pooled, and sequenced on Illumina platforms. Reads were first analyzed by fastQC and then trimmed for low-quality bases with Trimmomatic. Clean reads were then aligned to the human reference genome (GRCh38) with Ensembl gene annotation using STAR software. […]

hiPSC-EPSC = experiment: Ki67 immunofluorescent analysis of proliferating cells; conditions: hiPSC-EPSC treated with CHIR-99021 vs untreated cells
Experimental: as §1
Immunocytochemistry: Cells were cultured and imaged in 96 well plates. Briefly, media was aspirated, and wells rinsed once with PBS for 2 minutes. Cells were fixed with 4% formaldehyde for 10 minutes at RT, followed by two washes with PBS. […]

[2] = test system: Wnt pathway genes LEF1, TCF4, LGR6 in hiPSC-EPSC; experiment: qPCR gene expression analysis of Wnt signaling pathway genes; conditions: ddCt, hiPSC-EPSC treated with CHIR-99021
Experimental: as §1
as §2, with “invest.” for “invest. 2009 August, 89(8):844-56; Ohyama et al., J Clin Invest. 2006 January, 116(1):249-60; Yang et al., Stem Cell Research & Therapy (2020) 11:303.”

Cc1cccc(-c2nn(C(=S)Nc3ccccc3)cc2-c2ccnc3ccccc23)n1 [A-83-01]
clonogenicity of hiPSC-EPSCs (hiPSC-EPSCs): not BMP or TGF-β inhibitors, preserved clonogenicity

Cc1c[nH]c(-c2cnc(NCCNc3ccc(C#N)cn3)nc2-c2ccc(Cl)cc2Cl)n1 [CHIR-99021, 6-((2-((4-(2,4-Dichlorophenyl)-5-(4-methyl-1H-imidazol-2-yl)pyrimidin-2-yl)amino)ethyl)amino)nicotinonitrile]
percentage of elongated organoids [1]: increased
expression of HF bulge EPSC markers including KRT15, CD59, TP63, ITGA6, DKK3, SOX9, and NFATC1 (passage 4 hiPSC-EPSCs): increased the expression
number of proliferating (Ki67+) cells (hiPSC-EPSC): significantly higher number of proliferating cells
expression of Wnt pathway genes including LEF1, TCF4, and LGR6 [2]: upregulation
clonogenicity of hiPSC-EPSCs (hiPSC-EPSCs): preserved clonogenicity

CC(C)Oc1ccc(-c2cnc3c(-c4ccnc5ccccc45)cnn3c2)cc1 [DMH-1]
clonogenicity of hiPSC-EPSCs (hiPSC-EPSCs): not BMP or TGF-β inhibitors, preserved clonogenicity
